According to ChEMBL document CHEMBL2203043, “Carbonic anhydrase inhibitors. Regioselective synthesis of novel series 1-substituted 1,4-dihydro-4-oxo-3-pyridinesulfonamides and their inhibition of the human cytosolic isozymes I and II and transmembrane cancer-associated isozymes IX and XII” (Eur J Med Chem, 2012):

target: Carbonic anhydrase 9 (Homo sapiens, UniProt Q16790); test: Inhibition of human CA9 after 15 mins by stopped-flow CO2 hydrase assay

Q: With CN(C)c1nc(N)nc(Cn2ccc(=O)c(S(N)(=O)=O)c2)n1 as the compound, how does the Ki read?
A: 0.0165 µM

Q: NS(=O)(=O)c1cn(CC2CC2)ccc1=O was tested. Which Ki did it give?
A: 0.0851 µM

Q: How did the Ki turn out when NS(=O)(=O)c1cn(CC(=O)NS(=O)(=O)c2ccccc2Cl)ccc1=O was run?
A: 0.0297 µM

Q: With NS(=O)(=O)c1cn(CC(=O)Nc2ccc(Cl)c([N+](=O)[O-])c2)ccc1=O as the compound, how does the Ki read?
A: 0.0606 µM

Q: Which Ki does the source give for Cc1ccc(S(=O)(=O)NNC(=O)Cn2ccc(=O)c(S(N)(=O)=O)c2)cc1 here?
A: 0.0118 µM

Q: For NS(=O)(=O)c1cn(CCO)ccc1=O, which Ki is on record?
A: 0.0547 µM

Q: Cc1cccc(C)c1NC(=O)Cn1ccc(=O)c(S(N)(=O)=O)c1 was tested. Which Ki did it give?
A: 0.0173 µM

Q: CCOC(=O)Cn1ccc(=O)c(S(N)(=O)=O)c1 was tested. Which Ki did it give?
A: 0.0601 µM

Q: Which Ki does the source give for Cc1ccc(-n2c(Cn3ccc(=O)c(S(N)(=O)=O)c3)nc3ccccc3c2=O)cc1 here?
A: 0.0703 µM

Q: Which Ki does the source give for NS(=O)(=O)c1cn(CC(=O)Nc2cccc([N+](=O)[O-])c2)ccc1=O here?
A: 0.0334 µM

Q: Which Ki does the source give for NS(=O)(=O)c1cn(Cc2nc3ccccc3c(=O)n2-c2ccccc2)ccc1=O here?
A: 0.0762 µM

Q: How did the Ki turn out when NS(=O)(=O)c1cn(CC(=O)NS(=O)(=O)c2ccc(Cl)cc2)ccc1=O was run?
A: 0.0386 µM

Q: How did the Ki turn out when Cc1noc(C)c1Cn1ccc(=O)c(S(N)(=O)=O)c1 was run?
A: 0.0231 µM

Q: CCN(c1ccccc1)c1nc(N)nc(Cn2ccc(=O)c(S(N)(=O)=O)c2)n1 was tested. Which Ki did it give?
A: 0.0501 µM

Q: With CC1=NN(c2nc(N)nc(Cn3ccc(=O)c(S(N)(=O)=O)c3)n2)CC1 as the compound, how does the Ki read?
A: 0.0778 µM

Q: Which Ki does the source give for NS(=O)(=O)c1cn(CC(=O)NS(=O)(=O)c2ccc([N+](=O)[O-])cc2)ccc1=O here?
A: 0.0652 µM

Q: NS(=O)(=O)c1cn(CC(=O)Nc2ccc(Cl)cc2)ccc1=O was tested. Which Ki did it give?
A: 0.0934 µM

Q: For NS(=O)(=O)c1cn(Cc2nc3ccccc3c(=O)n2-c2ccc(Cl)cc2)ccc1=O, which Ki is on record?
A: 0.0712 µM

Q: How did the Ki turn out when NS(=O)(=O)c1cn(CC(=O)NNC(=O)c2ccco2)ccc1=O was run?
A: 0.0561 µM

Q: Which Ki does the source give for Nc1nc(Cn2ccc(=O)c(S(N)(=O)=O)c2)nc(N2CCOCC2)n1 here?
A: 0.0725 µM

Q: Which Ki does the source give for N#CCCCn1ccc(=O)c(S(N)(=O)=O)c1 here?
A: 0.0672 µM

Q: Which Ki does the source give for COC(=O)c1ccccc1NC(=O)Cn1ccc(=O)c(S(N)(=O)=O)c1 here?
A: 0.0864 µM

Q: CC1=NN(c2nc(N)nc(Cn3ccc(=O)c(S(N)(=O)=O)c3)n2)C(C)(C)C1 was tested. Which Ki did it give?
A: 0.0663 µM

species on record: Homo sapiens; test: Selectivity ratio of Ki for human CA2 to Ki for human CA9

Q: For CCOc1ccc2nc(S(N)(=O)=O)sc2c1, which Ratio Ki is on record?
A: 0.33

Q: For NS(=O)(=O)c1cc(Cl)c(Cl)c(S(N)(=O)=O)c1, which Ratio Ki is on record?
A: 0.33

Q: With CC(=O)Nc1nnc(S(N)(=O)=O)s1 as the compound, how does the Ratio Ki read?
A: 0.33

Q: With CC(=O)/N=c1/sc(S(N)(=O)=O)nn1C as the compound, how does the Ratio Ki read?
A: 0.33

Q: For NS(=O)(=O)c1ccc(S(=O)(=O)Nc2cccc3c(Cl)c[nH]c23)cc1, which Ratio Ki is on record?
A: 0.33
